Experimental data reported in patent US20190160093A1, “THERAPEUTIC AGENT FOR DISEASE ACCOMPANIED BY EPILEPTIC WAVES” (TAIYO NIPPON SANSO CORPORATION, priority 2010, published 2019).
Where two headings read alike, the source gives them in different places.

Columns and labels:
[1] = tested on: epileptic model rat (GRY rat); experiment: Electroencephalogram spike index of epileptic model rat (GRY rat); assay type: in vivo; settings: GRY rats
Text: In the present Example, a GRY rat (groggy rat, Cacnala) was used as an epileptic model rat. A GRY rat constantly develops an epileptic seizure in normal conditions, and therefore is an extremely excellent system to evaluate a seizure by subjecting the GRY rat to a treatment. The GRY rat has a mutation in an al subunit of a P/Q-type voltage-dependent calcium channel Cav2.1 which encodes Cacnala gene, and is an epileptic model rat which mainly develops ataxia and absence seizure. The GRY rat takes a mode of autosomal recessive inheritance. The 752nd nucleotide “T” of the Cacnala gene has mutated to “A”. As a result, a codon “ATG” to specify methionine which is the 251st amino acid has mutated to a codon “AAG” to specify lysine (M251K). It has been reported that this mutation is located at extracellular p-loop forming a pore of a calcium channel domain 1 and that this mutation (M251K) results in abnormality of a function of the voltage-dependent calcium ion channel Cav2.1 of the rat (Reference Literatures 1 and 2). The GRY rats with this mutation show extension abnormalities of hind limbs, walking abnormalities, and ataxia, and a seizure which is accompanied with spike and wave discharges of 7-8 Hz on the electroencephalograms from 6-8 weeks of age. The present model rats were dispensed from Institute of Laboratory Animals, Graduate School of Medicine, Kyoto University.
Male GRY rats were anesthetized by administering 35 mg/kg of pentobarbital sodium (Nembutal, Sumitomo Dainippon Pharma Co. Ltd.) intraperitoneally, and were fixed to a brain stereotaxic fixing apparatus (SR-5M, NARISHIGE Group). The head was shaved, the skin was incised along the median line, and the skull was exposed. A small hole was opened on the frontal lobe cortex and the occipital lobe cortex on both sides using a dental drill (FALCON, Morita Corporation). A stainless steel screw electrode (FUKUOKA RASHI) having a diameter of 0.9 mm and a length of 1.7 mm and connected a stainless steel wire having a diameter of 0.2 mm (M T Giken) was embedded in the hole (refer to FIG. 1). A screw electrode was embedded in the root of nose as a Z electrode, and a screw electrode was embedded in the cerebellum as an indifferent electrode. Each electrode was connected to a connector socket (Hirose Electric Co. Ltd.), and fixed to the skull with dental cement (Uni Fast II, GC Dental Products).
The rats placed in the multi-gas concentration control apparatus adjusted to a concentration of carbon dioxide of 5% (v/v), 7% (v/v), or 10% (v/v) were subjected to simultaneous video-electroencephalographic recording. Rats placed in the air were used as a control.
Electroencephalograms of the frontal lobe cortex and the occipital lobe cortex of the rats were measured using an electroencephalograph (Neurofax EEG-1200, NIHON KOHDEN CORPORATION). A spike index was used as an index of evaluation of a seizure. The spike index represents a ratio of duration of a spike in measurement time (15 minutes). The spike means a waveform indicating a sharp change in potential in a short time (refer to FIG. 3).
Carbon dioxide was administered to rats by placing the rats in the multi-gas concentration control apparatus adjusted to a concentration of carbon dioxide of 10% (v/v) (9 rats).
By placing the rats in the multi-gas concentration control apparatus, the rats were administered with 10% (v/v) carbon dioxide, and subjected to simultaneous video-electroencephalographic recording every 15 minutes for one hour, and an effect of suppressing an epileptic seizure (spike index) was measured before and after the administration of carbon dioxide.
Next, electroencephalograms were measured.

[2] = Blood concentration, blood pH and blood bicarbonate ion after acetazolamide in GRY rats
[3] = tested on: epileptic model rat (Kyo811 rat); experiment: Electroencephalogram and seizure duration of Kyo811 rats with febrile seizures induced by thermal load; assay type: in vivo; settings: febrile seizures by warm bath at 45° C., carbon dioxide 10% (v/v) vs normal air
Text: In epilepsy, about 80% of patients of intractable Dravet syndrome (formerly, referred to as Severe Myoclonic Epilepsy in Infancy: SMEI), and about 5-10% of patients of benign generalized epilepsy with febrile seizure plus: GEFS+) have missense mutations in a voltage-dependent sodium channel a subunit type 1 (SCN1A) gene. Therefore, it is considered that the mutations in the SCN1A gene are involved in development of febrile seizures (Reference Literatures 3 and 4). In the present Reference Example, using the Kyo811 rats having a mutation in the Scn1a gene as a genetic factor, suppressive effect of seizure by carbon dioxide was examined. This rat is a febrile seizure model rat which induces febrile seizures by a thermal load, and a GEFS+ model rat.
A Kyo811 rat was prepared as a rat with a mutation in the voltage-dependent sodium channel Scn1a gene by the following technology. […]
After a one-week recovery period, the rats were put into a warm bath at 45° C. for about 3-4 minutes to induce febrile seizures, and electroencephalograms were measured.
Immediately after the seizure was induced, the rats were placed in the multi-gas concentration control apparatus adjusted to the concentration of carbon dioxide of 10% (v/v) or the concentration of the normal air, and the situation of the seizure was observed while electroencephalograms were measured continuously. […]

[4] = Blood pH and blood gas of GRY rats placed in gas containing carbon dioxide or oxygen; assay type: in vivo, rat
Description: In order to control a concentration of carbon dioxide, multi-gas incubator (MCO-5M; Sanyo Electric Co., Ltd.) was used as a multi-gas concentration control apparatus to adjust the concentration of carbon dioxide in the incubator. A concentration of oxygen was also adjusted for comparison. Main components of the normal dry air are 0.032% (v/v) of carbon dioxide, 20.946% (v/v) of oxygen, and 78.084% (v/v) of nitrogen. Therefore, using the above-described multi-gas concentration control apparatus, the concentration of carbon dioxide was set to 5% (v/v), 7% (v/v), or 10% (v/v), or the concentration of oxygen was set to 17% (v/v). When the concentration of carbon dioxide was adjusted, carbon dioxide gas supplied from a carbon dioxide gas bottle connected to the apparatus was diluted with the air outside. Therefore, carbon dioxide=10% (v/v), oxygen=about 18.85% (v/v), and nitrogen=about 70.28% (v/v). When the concentration of oxygen was set to 17% (v/v), similarly, the concentration was adjusted using nitrogen gas supplied from a nitrogen gas bottle connected to the apparatus. Therefore, carbon dioxide=0.026% (v/v), oxygen=about 17% (v/v), and nitrogen=about 82.974% (v/v). It was confirmed using a gas analyzer AGA-2008 (Astec Co. Ltd.) that each concentration in the incubator was correct under the set conditions.
The surgery of embedding an electrode for measurement of electroencephalograms was performed to eight male GRY rats (9 weeks old). After a one-week recovery period, the GRY rats were placed for one hour in the multi-gas concentration control apparatus adjusted to a concentration of carbon dioxide of 5% (v/v), 7% (v/v), or 10% (v/v), or a concentration of oxygen of 17% (v/v).
Blood samples were collected from the tail vein of the rats placed in the multi-gas concentration control apparatus, and the blood pH and the blood concentration of carbon dioxide were measured using an i-STAT analyzer (Fuso Pharmaceutical Industries, Ltd.) as a blood gas analyzer.
Carbon dioxide or oxygen was administered to rats by placing the rats in the multi-gas concentration control apparatus adjusted to a concentration of carbon dioxide of 10% (v/v) or a concentration of oxygen of 17% (v/v) for 15 minutes, 30 minutes, 45 minutes, or 60 minutes (5-6 rats for each). Rats placed in the multi-gas concentration control apparatus adjusted to a concentration of the normal air were used as a control.

[5] = cited from earlier work
[6] = Blood pH of Kyo811 rats after febrile seizures and carbon dioxide; assay type: in vivo, rat; settings: Kyo811 rats after febrile seizures, carbon dioxide 10% (v/v)
Description: Immediately after the seizure was induced, the rats were placed in the multi-gas concentration control apparatus adjusted to the concentration of carbon dioxide of 10% (v/v) or the concentration of the normal air, and the situation of the seizure was observed while electroencephalograms were measured continuously.
As a control, the blood pH of the rats (10 rats) before induction of febrile seizures was measured. As a result, it was confirmed that the increase in the concentration of carbon dioxide to 10% (v/v) reduced the blood pH of the rats (FIG. 14).

8-11 days-old rats = settings: rats in a chamber containing 5% carbon dioxide; cited from earlier work
[7] = 50 mg/kg intraperitoneally, 15, 30, 45 and 60 minutes after the administration, saline control
[8] = 10% (v/v) carbon dioxide for 15 to 60 minutes
[9] = carbon dioxide 5% (v/v), 7% (v/v) or 10% (v/v), one hour
[10] = concentration of oxygen 17% (v/v), one hour

SMILES: CC(=O)Nc1nnc(S(N)(=O)=O)s1 [acetazolamide, Acetazolamide]
- spike duration of a seizure ([1]; acetazolamide 50 mg/kg intraperitoneally, vs non-administration group): significantly suppresses
- time after administration of highest blood concentration of acetazolamide ([2]; 50 mg/kg intraperitoneally): 15 min
- blood bicarbonate ion as compared with the control group [2, 7]: significantly low
- blood pH as compared with the control group [2, 7]: significantly low
- blood pH ([2]; 30 minutes after the administration of 50 mg/kg): 7.08±0.03

SMILES: O=C=O [carbon dioxide]
- time the effect of suppressing a seizure lasts after the administration ([1]; 10% (v/v) carbon dioxide): ≥ 30 min
- average spike index (spike index for 15 minutes before administration assumed to be 1) ([1]; 10% (v/v) carbon dioxide, 0-15 minutes): 0.0074
- average spike index (spike index for 15 minutes before administration assumed to be 1) ([1]; 10% (v/v) carbon dioxide, 16-30 minutes): 0.054
- average spike index (spike index for 15 minutes before administration assumed to be 1) ([1]; 10% (v/v) carbon dioxide, 31-45 minutes): 0.275
- average spike index (spike index for 15 minutes before administration assumed to be 1) ([1]; 10% (v/v) carbon dioxide, 46-60 minutes): 0.416
- effect of suppressing a seizure ([1]; 10% (v/v) carbon dioxide, 15 minutes after the administration): suppress a seizure almost completely
- epileptiform discharges, duration of a spike ([1]; 10% (v/v) carbon dioxide, five minutes from 25 seconds after starting vs five minutes before administration): suppressed significantly
- epileptiform discharges, duration of a spike ([1]; carbon dioxide 7% (v/v) or 10% (v/v), control rats in the air): suppressed significantly
- epileptiform discharges, duration of a spike [3]: suppressed significantly
- seizure duration (second) [3]: suppressed significantly
- blood concentration of carbon dioxide [4, 8]: increased
- blood pH [4, 8]: reduced
- blood concentration of carbon dioxide [4, 9]: increased
- blood pH [4, 9]: reduced
- blood pH ([4]; environment of 10% (v/v) carbon dioxide): 7.27
- effect of carbon dioxide gas in the air ([5]; concentration of 1 to 2% (v/v)): causes discomfort
- effect of carbon dioxide gas in the air ([5]; concentration of 3 to 4% (v/v)): stimulates the respiratory center
- effect of carbon dioxide gas in the air ([5]; concentration of 6 to 7% (v/v)): makes breathing difficult
- effect of carbon dioxide gas in the air ([5]; concentration of 7 to 10% (v/v)): causes unconsciousness in a few minutes
- blood pH [6]: reduced
- alkalosis in the brain (8-11 days-old rats): can be suppressed

SMILES: O=O [oxygen, reference compound]
- blood concentration of carbon dioxide [4, 10]: reduced
- blood pH [4, 10]: increased
